Experiments:
[1] = target: Histamine H1 receptor (Homo sapiens) (UniProt P35367); details: Compound concentration 10.0 uM
[2] = target: Histamine H4 receptor (Homo sapiens) (UniProt Q9H3N8); details: Compound concentration 10.0 uM
[3] = target: Beta-3 adrenergic receptor (Homo sapiens) (UniProt P13945); details: Compound concentration 10.0 uM
[4] = target: D(1B) dopamine receptor (Homo sapiens) (UniProt P21918); details: Compound concentration 10.0 uM
[5] = target: Beta-2 adrenergic receptor (Homo sapiens) (UniProt P07550); details: Compound concentration 10.0 uM
[6] = target: 5-hydroxytryptamine receptor 2A (Homo sapiens) (UniProt P28223); details: Compound concentration 10.0 uM
[7] = target: Alpha-1B adrenergic receptor (Homo sapiens) (UniProt P35368); details: Compound concentration 10.0 uM
[8] = target: 5-hydroxytryptamine receptor 2C (Homo sapiens) (UniProt P28335); details: Compound concentration 10.0 uM
[9] = target: 5-hydroxytryptamine receptor 2B (Homo sapiens) (UniProt P41595); details: Compound concentration 10.0 uM
[10] = target: Alpha-1D adrenergic receptor (Homo sapiens) (UniProt P25100); details: Compound concentration 10.0 uM
[11] = target: 5-hydroxytryptamine receptor 1B (Homo sapiens) (UniProt P28222); details: Compound concentration 10.0 uM
[12] = target: Kappa-type opioid receptor (Homo sapiens) (UniProt P41145); details: Compound concentration 10.0 uM
[13] = target: Transient receptor potential cation channel subfamily M member 8 (Homo sapiens, UniProt Q7Z2W7); assay: Assay (coming soon)
[14] = target: 5-hydroxytryptamine receptor 3A (Homo sapiens) (UniProt P46098); details: Compound concentration 10.0 uM
[15] = target: Sodium-dependent noradrenaline transporter (Homo sapiens) (UniProt P23975); details: Compound concentration 10.0 uM
[16] = target: Histamine H3 receptor (Homo sapiens) (UniProt Q9Y5N1); details: Compound concentration 10.0 uM
[17] = target: Sodium-dependent serotonin transporter (Homo sapiens) (UniProt P31645); details: Compound concentration 10.0 uM
[18] = target: Muscarinic acetylcholine receptor M1 (Homo sapiens) (UniProt P11229); details: Compound concentration 10.0 uM
[19] = target: Alpha-2C adrenergic receptor (Homo sapiens) (UniProt P18825); details: Compound concentration 10.0 uM
[20] = target: Muscarinic acetylcholine receptor M2 (Homo sapiens) (UniProt P08172); details: Compound concentration 10.0 uM
[21] = target: Alpha-1A adrenergic receptor (Homo sapiens) (UniProt P35348); details: Compound concentration 10.0 uM
[22] = target: 5-hydroxytryptamine receptor 7 (Homo sapiens) (UniProt P34969); details: Compound concentration 10.0 uM
[23] = target: Muscarinic acetylcholine receptor M5 (Homo sapiens) (UniProt P08912); details: Compound concentration 10.0 uM
[24] = target: 5-hydroxytryptamine receptor 1A (Homo sapiens) (UniProt P08908); details: Compound concentration 10.0 uM
[25] = target: T1, GABA-A receptor; anion channel (Rattus norvegicus) (UniProt O09028+P15431+P18506+P18508+P19969+P20236+P23574+P23576+P28471+P28473+P30191+P62813+P63079+P63138+Q91ZM7+Q9ES14); details: Compound concentration 10.0 uM
[26] = target: Mu-type opioid receptor (Homo sapiens) (UniProt P35372); details: Compound concentration 10.0 uM
[27] = target: 5-hydroxytryptamine receptor 5A (Homo sapiens) (UniProt P47898); details: Compound concentration 10.0 uM
[28] = target: D(4) dopamine receptor (Homo sapiens) (UniProt P21917); details: Compound concentration 10.0 uM
[29] = target: Beta-1 adrenergic receptor (Homo sapiens) (UniProt P08588); details: Compound concentration 10.0 uM
[30] = target: D(2) dopamine receptor (Homo sapiens) (UniProt P14416); details: Compound concentration 10.0 uM
[31] = target: T1, GABA-A receptor; anion channel (Rattus norvegicus); details: Compound concentration 10.0 uM; remark: listed apart in the source
Rattus norvegicus = species on record: Rattus norvegicus; details: Compound concentration 10.0 uM
[32] = target: Muscarinic acetylcholine receptor M3 (Homo sapiens) (UniProt P20309); details: Compound concentration 10.0 uM
[33] = target: Muscarinic acetylcholine receptor M4 (Homo sapiens) (UniProt P08173); details: Compound concentration 10.0 uM
[34] = target: 5-hydroxytryptamine receptor 6 (Homo sapiens) (UniProt P50406); details: Compound concentration 10.0 uM
[35] = target: T2, Alpha-2B adrenergic receptor (Homo sapiens) (UniProt P18089); details: Compound concentration 10.0 uM
T2 sequence (whole entry): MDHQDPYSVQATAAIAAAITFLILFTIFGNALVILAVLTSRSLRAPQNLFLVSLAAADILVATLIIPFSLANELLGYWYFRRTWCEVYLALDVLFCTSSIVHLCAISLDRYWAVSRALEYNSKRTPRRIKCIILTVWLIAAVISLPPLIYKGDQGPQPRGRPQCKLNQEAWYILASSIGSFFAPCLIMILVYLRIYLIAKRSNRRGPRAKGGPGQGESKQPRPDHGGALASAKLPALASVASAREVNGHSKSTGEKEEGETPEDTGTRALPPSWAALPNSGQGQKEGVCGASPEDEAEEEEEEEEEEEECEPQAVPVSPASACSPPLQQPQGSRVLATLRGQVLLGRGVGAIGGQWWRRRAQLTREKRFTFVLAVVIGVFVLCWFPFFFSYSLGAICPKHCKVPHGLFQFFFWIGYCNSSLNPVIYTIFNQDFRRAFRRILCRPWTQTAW

[36] = target: Delta-type opioid receptor (Homo sapiens) (UniProt P41143); details: Compound concentration 10.0 uM

Chain of Muscarinic acetylcholine receptor M5 (Homo sapiens) (P08912 whole entry): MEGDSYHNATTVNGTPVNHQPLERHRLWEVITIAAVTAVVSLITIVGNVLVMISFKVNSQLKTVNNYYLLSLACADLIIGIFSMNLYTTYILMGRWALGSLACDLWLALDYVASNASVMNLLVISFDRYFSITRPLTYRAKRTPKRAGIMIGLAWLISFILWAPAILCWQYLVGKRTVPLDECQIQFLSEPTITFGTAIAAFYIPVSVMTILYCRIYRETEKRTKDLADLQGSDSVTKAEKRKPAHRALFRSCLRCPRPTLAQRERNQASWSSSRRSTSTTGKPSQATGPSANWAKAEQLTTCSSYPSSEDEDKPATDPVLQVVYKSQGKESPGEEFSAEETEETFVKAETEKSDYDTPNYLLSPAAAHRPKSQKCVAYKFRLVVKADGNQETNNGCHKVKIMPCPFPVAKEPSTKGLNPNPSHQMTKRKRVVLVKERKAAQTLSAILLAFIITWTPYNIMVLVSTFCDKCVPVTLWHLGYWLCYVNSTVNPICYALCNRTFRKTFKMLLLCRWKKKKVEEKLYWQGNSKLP
Chain of Muscarinic acetylcholine receptor M2 (Homo sapiens) (P08172 whole entry): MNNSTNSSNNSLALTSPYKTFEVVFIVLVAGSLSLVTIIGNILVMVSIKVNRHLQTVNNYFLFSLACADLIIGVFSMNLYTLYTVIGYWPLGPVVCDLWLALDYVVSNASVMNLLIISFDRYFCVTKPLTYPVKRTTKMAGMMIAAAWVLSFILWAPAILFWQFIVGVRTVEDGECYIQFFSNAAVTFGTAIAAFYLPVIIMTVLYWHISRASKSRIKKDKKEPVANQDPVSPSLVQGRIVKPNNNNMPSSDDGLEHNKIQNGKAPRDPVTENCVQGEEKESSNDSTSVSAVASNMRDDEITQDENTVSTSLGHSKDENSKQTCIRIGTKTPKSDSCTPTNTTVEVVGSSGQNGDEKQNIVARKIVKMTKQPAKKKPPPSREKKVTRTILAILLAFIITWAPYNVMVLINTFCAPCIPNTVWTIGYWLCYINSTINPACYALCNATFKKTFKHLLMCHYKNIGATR
Chain of Histamine H3 receptor (Homo sapiens) (Q9Y5N1 whole entry): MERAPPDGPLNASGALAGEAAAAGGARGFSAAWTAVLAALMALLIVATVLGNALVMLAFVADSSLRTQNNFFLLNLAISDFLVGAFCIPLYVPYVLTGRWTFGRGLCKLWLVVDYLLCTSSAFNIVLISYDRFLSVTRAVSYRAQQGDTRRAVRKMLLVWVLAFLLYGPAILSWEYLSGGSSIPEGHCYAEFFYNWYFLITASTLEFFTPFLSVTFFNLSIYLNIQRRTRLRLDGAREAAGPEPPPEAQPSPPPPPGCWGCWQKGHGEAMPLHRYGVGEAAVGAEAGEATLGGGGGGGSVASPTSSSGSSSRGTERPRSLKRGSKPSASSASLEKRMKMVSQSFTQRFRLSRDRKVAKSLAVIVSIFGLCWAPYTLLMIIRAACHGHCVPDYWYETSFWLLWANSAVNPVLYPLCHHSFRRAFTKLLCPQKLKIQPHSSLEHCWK
Chain of D(2) dopamine receptor (Homo sapiens) (P14416 whole entry): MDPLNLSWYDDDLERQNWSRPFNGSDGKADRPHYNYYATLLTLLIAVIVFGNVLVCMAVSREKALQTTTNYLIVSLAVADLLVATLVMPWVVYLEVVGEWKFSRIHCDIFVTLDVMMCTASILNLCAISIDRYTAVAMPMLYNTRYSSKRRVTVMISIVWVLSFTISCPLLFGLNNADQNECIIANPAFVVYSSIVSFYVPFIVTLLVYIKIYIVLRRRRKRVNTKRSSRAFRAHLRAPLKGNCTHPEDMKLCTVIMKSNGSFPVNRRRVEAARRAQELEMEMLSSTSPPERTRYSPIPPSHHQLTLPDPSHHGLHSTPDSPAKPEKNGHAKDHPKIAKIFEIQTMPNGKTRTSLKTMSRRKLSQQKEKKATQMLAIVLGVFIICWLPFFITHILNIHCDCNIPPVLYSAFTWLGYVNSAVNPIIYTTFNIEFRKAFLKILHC
Chain of Sodium-dependent serotonin transporter (Homo sapiens) (P31645 whole entry, looked up): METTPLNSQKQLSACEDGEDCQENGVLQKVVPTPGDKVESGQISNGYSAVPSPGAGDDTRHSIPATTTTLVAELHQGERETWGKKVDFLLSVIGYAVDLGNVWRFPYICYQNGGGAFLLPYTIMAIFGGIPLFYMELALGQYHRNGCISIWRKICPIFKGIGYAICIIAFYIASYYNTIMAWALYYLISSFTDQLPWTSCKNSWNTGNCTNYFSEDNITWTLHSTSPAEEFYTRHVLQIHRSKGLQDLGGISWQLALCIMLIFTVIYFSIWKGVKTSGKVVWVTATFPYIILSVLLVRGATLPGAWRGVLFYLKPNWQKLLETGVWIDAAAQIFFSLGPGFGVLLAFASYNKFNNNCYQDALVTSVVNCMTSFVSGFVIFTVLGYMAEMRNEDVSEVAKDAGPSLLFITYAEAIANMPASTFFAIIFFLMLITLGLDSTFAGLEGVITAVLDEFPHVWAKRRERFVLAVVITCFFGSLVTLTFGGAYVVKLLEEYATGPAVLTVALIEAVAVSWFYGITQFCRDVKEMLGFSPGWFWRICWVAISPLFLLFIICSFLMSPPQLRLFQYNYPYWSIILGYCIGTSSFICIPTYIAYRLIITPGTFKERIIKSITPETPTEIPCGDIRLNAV
Chain of Muscarinic acetylcholine receptor M4 (Homo sapiens) (P08173 whole entry): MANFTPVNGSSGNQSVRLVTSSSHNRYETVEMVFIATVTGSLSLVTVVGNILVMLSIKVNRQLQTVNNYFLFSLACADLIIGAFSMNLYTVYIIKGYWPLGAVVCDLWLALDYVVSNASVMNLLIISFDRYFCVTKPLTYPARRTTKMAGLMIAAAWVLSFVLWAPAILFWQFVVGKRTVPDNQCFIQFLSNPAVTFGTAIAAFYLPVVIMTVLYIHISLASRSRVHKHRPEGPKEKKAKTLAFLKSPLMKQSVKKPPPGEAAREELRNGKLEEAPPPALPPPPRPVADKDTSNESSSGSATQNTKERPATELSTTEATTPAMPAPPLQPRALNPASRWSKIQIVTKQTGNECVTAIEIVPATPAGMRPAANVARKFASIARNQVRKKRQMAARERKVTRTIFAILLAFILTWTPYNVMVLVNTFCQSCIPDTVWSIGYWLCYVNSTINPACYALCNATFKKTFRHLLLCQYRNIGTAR
Chain of 5-hydroxytryptamine receptor 7 (Homo sapiens) (P34969 whole entry): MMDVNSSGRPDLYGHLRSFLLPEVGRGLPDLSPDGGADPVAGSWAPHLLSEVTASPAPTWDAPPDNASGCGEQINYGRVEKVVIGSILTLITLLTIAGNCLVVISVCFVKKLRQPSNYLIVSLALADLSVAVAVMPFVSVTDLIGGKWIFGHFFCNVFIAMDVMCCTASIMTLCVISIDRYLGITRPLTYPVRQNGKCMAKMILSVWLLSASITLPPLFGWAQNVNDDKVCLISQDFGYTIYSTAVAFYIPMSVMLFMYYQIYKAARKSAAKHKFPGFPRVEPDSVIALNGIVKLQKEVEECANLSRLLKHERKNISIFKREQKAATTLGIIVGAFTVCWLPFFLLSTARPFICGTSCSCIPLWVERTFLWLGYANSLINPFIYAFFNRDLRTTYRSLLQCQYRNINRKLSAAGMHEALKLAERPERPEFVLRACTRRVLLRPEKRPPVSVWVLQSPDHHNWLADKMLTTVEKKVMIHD
Chain of 5-hydroxytryptamine receptor 1B (Homo sapiens) (P28222 whole entry): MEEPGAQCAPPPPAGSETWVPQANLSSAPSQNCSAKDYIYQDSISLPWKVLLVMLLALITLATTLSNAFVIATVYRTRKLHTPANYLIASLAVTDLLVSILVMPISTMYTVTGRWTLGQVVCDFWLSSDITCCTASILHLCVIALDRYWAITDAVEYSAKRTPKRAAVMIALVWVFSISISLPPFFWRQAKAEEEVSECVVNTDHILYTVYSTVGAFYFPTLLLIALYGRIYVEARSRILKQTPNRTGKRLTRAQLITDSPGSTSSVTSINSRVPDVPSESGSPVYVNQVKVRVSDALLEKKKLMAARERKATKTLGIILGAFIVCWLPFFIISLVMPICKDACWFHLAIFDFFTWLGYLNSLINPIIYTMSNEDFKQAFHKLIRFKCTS
Chain of 5-hydroxytryptamine receptor 2A (Homo sapiens) (P28223 whole entry): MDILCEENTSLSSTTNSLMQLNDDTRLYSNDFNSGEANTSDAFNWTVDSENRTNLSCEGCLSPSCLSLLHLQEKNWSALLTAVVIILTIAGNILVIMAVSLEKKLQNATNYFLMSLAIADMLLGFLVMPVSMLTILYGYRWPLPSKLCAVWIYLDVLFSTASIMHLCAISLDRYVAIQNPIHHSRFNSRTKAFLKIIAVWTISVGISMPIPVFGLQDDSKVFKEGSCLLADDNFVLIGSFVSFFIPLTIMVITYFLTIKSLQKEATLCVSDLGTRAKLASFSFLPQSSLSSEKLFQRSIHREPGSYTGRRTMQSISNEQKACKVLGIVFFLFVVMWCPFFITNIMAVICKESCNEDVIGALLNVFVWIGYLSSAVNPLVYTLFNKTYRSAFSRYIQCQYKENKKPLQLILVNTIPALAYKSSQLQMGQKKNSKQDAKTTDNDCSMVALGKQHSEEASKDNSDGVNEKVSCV
Chain of D(4) dopamine receptor (Homo sapiens) (P21917 whole entry): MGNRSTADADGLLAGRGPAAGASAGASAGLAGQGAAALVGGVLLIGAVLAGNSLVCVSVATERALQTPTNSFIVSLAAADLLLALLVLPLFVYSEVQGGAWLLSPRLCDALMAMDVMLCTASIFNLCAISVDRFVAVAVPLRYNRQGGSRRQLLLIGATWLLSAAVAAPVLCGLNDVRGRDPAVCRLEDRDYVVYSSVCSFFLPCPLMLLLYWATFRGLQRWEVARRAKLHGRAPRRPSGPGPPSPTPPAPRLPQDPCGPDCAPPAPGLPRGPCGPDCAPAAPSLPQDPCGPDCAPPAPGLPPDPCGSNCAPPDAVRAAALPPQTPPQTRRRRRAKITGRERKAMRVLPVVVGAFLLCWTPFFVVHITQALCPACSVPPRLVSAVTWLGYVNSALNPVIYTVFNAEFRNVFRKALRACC

Structure (SMILES): C[C@H](c1ccc(F)cc1)N(Cc1ccc(Cl)c(C(=O)O)c1)C(=O)c1cnc2ccccc2c1 [PF-05257137]
- inhibition [1]: -3.13%
- inhibition [2]: 3.41%
- inhibition [3]: -5.1%
- inhibition [4]: 12.8%
- inhibition [5]: 24.1%
- inhibition [6]: -2.34%
- inhibition [7]: -1.36%
- inhibition [8]: -7.78%
- inhibition [9]: 21.8%
- inhibition [10]: 10.1%
- inhibition [11]: -7.94%
- inhibition [12]: -0.42%
- IC50 [13]: > 10 µM (not active)
- inhibition [14]: 14.3%
- inhibition [15]: -9.65%
- inhibition [16]: -8.13%
- inhibition [17]: -2.63%
- inhibition [18]: 14.5%
- inhibition [19]: 14.2%
- inhibition [20]: 1.24%
- inhibition [21]: 11.5%
- inhibition [22]: 13.8%
- inhibition [23]: -1.1%
- inhibition [24]: -3.79%
- inhibition [25]: -0.14%
- inhibition [26]: 0.07%
- inhibition [27]: 1.77%
- inhibition [28]: 14.9%
- inhibition [29]: -0.35%
- inhibition [30]: -0.95%
- inhibition [31]: 28.3%
- inhibition (Rattus norvegicus): -9.88%
- inhibition [32]: 39%
- inhibition [33]: 4.42%
- inhibition [34]: 11.3%
- inhibition [35]: 17.7%
- inhibition [36]: 12.4%
